Data published in paper PMC11971462, “Generation and validation of a novel multitarget small molecule in glioblastoma” (Cell Death & Disease, 2025).

Tested on: GNS166 cells

C#CCN(Cc1cc2cc(OCCCN3CCCCC3)ccc2n1S(=O)(=O)c1ccccc1)C(=O)CCCCCCC(=O)NO [DDI]
A2M log2FoldChange: 2.665
ABCD2 log2FoldChange: 5.236
ABCG1 log2FoldChange: 3.412
ABLIM2 log2FoldChange: 4.711
ABLIM3 log2FoldChange: 3.639
ACSL6 log2FoldChange: 2.978
ACSM3 log2FoldChange: 2.457
ACTBL2 log2FoldChange: 4.551
ADAMTS2 log2FoldChange: 6.235
ADAMTS7 log2FoldChange: 2.1929
ADAMTS8 log2FoldChange: 3.596
ADCYAP1R1 log2FoldChange: 3.806
ADGRG4 log2FoldChange: 6.334
ADRB1 log2FoldChange: 2.369
AKR1C3 log2FoldChange: 4.683
ALDH1A1 log2FoldChange: 3.2419
ALPL log2FoldChange: 3.15
AMER2 log2FoldChange: 3.985
ANGPTL4 log2FoldChange: 2.513
ANGPTL6 log2FoldChange: 3.595
ANKRD1 log2FoldChange: 3.607
ANKRD24 log2FoldChange: 3.419
ANO5 log2FoldChange: 4.46
ANOS1 log2FoldChange: 4.667
APC2 log2FoldChange: 2.08
ARHGAP4 log2FoldChange: 2.074
ARMH1 log2FoldChange: 2.688
ARPP21 log2FoldChange: 2.016
ASPHD1 log2FoldChange: 2.1055
ASXL3 log2FoldChange: 3.768
ATCAY log2FoldChange: 4.501
ATP6V1C2 log2FoldChange: 2.012
AZIN2 log2FoldChange: 3.645
B3GALT1 log2FoldChange: 2.502
BAIAP3 log2FoldChange: 2.116
BEST1 log2FoldChange: 2.175
BMF log2FoldChange: 2.488
BMP7 log2FoldChange: 2.795
BRINP1 log2FoldChange: 6.679
C2orf81 log2FoldChange: 2.053
C5AR1 log2FoldChange: 2.131
C14orf132 log2FoldChange: 5.7
CACNA1H log2FoldChange: 4.953
CACNA2D2 log2FoldChange: 5.172
CADM3 log2FoldChange: 6.675
CALHM5 log2FoldChange: 2.928
CALY log2FoldChange: 5.625
CAMK2N2 log2FoldChange: 2.028
CARMIL2 log2FoldChange: 3.403
CARMIL3 log2FoldChange: 3.869
CCDC39 log2FoldChange: 4.487
CCDC92B log2FoldChange: 5.8
CCDC110 log2FoldChange: 2.494
CCDC148 log2FoldChange: 2.41
CCDC160 log2FoldChange: 2.467
CCDC181 log2FoldChange: 2.436
CCDC183 log2FoldChange: 2.45
CCM2L log2FoldChange: 4.732
CD22 log2FoldChange: 2.4858
CDYL2 log2FoldChange: 2.827
CECR2 log2FoldChange: 4.106
CELF5 log2FoldChange: 4.62
CFAP43 log2FoldChange: 2.577
CFAP54 log2FoldChange: 2.381
CFAP57 log2FoldChange: 3.908
CFAP298-TCP10L log2FoldChange: 2.613
CHGB log2FoldChange: 2.484
CHRD log2FoldChange: 2.364
CHST9 log2FoldChange: 3.903
CKMT1A log2FoldChange: 5.211
CLEC19A log2FoldChange: 2.635
CLIC5 log2FoldChange: 2.4345
COL2A1 log2FoldChange: 3.044
COL6A3 log2FoldChange: 4.472
CPED1 log2FoldChange: 2.118
CPLX1 log2FoldChange: 3.672
CPM log2FoldChange: 2.471
CRABP1 log2FoldChange: 4.4
CRTAC1 log2FoldChange: 4.102
CRYAB log2FoldChange: 3.702
CSMD2 log2FoldChange: 3.997
CSRNP3 log2FoldChange: 2.27
CTSH log2FoldChange: 2.081
CYP1A1 log2FoldChange: 3.053
CYP2S1 log2FoldChange: 2.662
CYP4F22 log2FoldChange: 6.411
DAPL1 log2FoldChange: 2.233
DCAF8L1 log2FoldChange: 5.4838
DDIT4L log2FoldChange: 2.364
DENND6B log2FoldChange: 2.257
DGKI log2FoldChange: 3.175
DHH log2FoldChange: 3.784
DLL3 log2FoldChange: 3.7947
DLX3 log2FoldChange: 2.236
DMBX1 log2FoldChange: 2.746
DNAAF1 log2FoldChange: 4.023
DNAH7 log2FoldChange: 3.23
DNAI1 log2FoldChange: 4.453
DNAI3 log2FoldChange: 2.636
DNAI7 log2FoldChange: 4.138
DOCK5 log2FoldChange: 2.9913
DTX1 log2FoldChange: 4.306
DUSP9 log2FoldChange: 2.25
EAF2 log2FoldChange: 2.082
EDA log2FoldChange: 4.8176
EFCAB12 log2FoldChange: 2.979
EGFL7 log2FoldChange: 2.196
EGLN3 log2FoldChange: 2.576
EID3 log2FoldChange: 2.42
ELAPOR2 log2FoldChange: 4.1571
ELOVL3 log2FoldChange: 3.984
EPHB6 log2FoldChange: 4.725
ERBB3 log2FoldChange: 2.384
ERVV-1 log2FoldChange: 6.315
FAIM2 log2FoldChange: 2.169
FAM43B log2FoldChange: 2.485
FAM71F1 log2FoldChange: 2.207
FAM78A log2FoldChange: 2.232
FAM107A log2FoldChange: 2.013
FAM131C log2FoldChange: 2.228
FANK1 log2FoldChange: 2.642
FAT2 log2FoldChange: 2.483
FBLN2 log2FoldChange: 5.485
FBLN5 log2FoldChange: 4.419
FBXO2 log2FoldChange: 2.58
FGF13 log2FoldChange: 3.276
FIBIN log2FoldChange: 2.106
FKBP1B log2FoldChange: 2.251
FOLR1 log2FoldChange: 2.626
FOXO6 log2FoldChange: 2.278
FRK log2FoldChange: 2.849
FSTL5 log2FoldChange: 5.479
FXYD6 log2FoldChange: 4.385
GABRB1 log2FoldChange: 3.597
GABRD log2FoldChange: 5.7221
GABRQ log2FoldChange: 7.349
GALNT6 log2FoldChange: 2.317
GDPD1 log2FoldChange: 2.176
GFY log2FoldChange: 3.527
GLB1L2 log2FoldChange: 6.148
GNG4 log2FoldChange: 2.04
GNG8 log2FoldChange: 3.102
GPC3 log2FoldChange: 3.37
GPC5 log2FoldChange: 2.595
GRB14 log2FoldChange: 2.215
GRHL3 log2FoldChange: 2.762
GRIA2 log2FoldChange: 4.688
GRIA4 log2FoldChange: 3.3
GRID2IP log2FoldChange: 3.773
GRIN3B log2FoldChange: 5.631
GSTO2 log2FoldChange: 2.18
HAND1 log2FoldChange: 4.809
HAPLN3 log2FoldChange: 2.0919
HBA1 log2FoldChange: 5.471
HBA2 log2FoldChange: 4.292
HEPHL1 log2FoldChange: 2.403
HGF log2FoldChange: 3.276
HHIP log2FoldChange: 3.119
HIF3A log2FoldChange: 5.349
HLA-DMB log2FoldChange: 2.342
HMCN2 log2FoldChange: 3.444
HOATZ log2FoldChange: 4.467
HOXA13 log2FoldChange: 2.2385
HPCAL4 log2FoldChange: 5.769
HSPA2 log2FoldChange: 3.557
HTR6 log2FoldChange: 3.33
ID4 log2FoldChange: 2.033
IER3 log2FoldChange: 2.061
IFITM10 log2FoldChange: 2.3164
IGFBP3 log2FoldChange: 2.818
IGFN1 log2FoldChange: 4.535
IGLON5 log2FoldChange: 3.821
IGSF1 log2FoldChange: 6.9503
IGSF9 log2FoldChange: 5.356
IGSF11 log2FoldChange: 3.128
IL1A log2FoldChange: 2.307
IL18R1 log2FoldChange: 2.881
IL21R log2FoldChange: 5.107
INSRR log2FoldChange: 3.812
INSYN1 log2FoldChange: 2.89
ITGAX log2FoldChange: 6.404
ITIH5 log2FoldChange: 7.18
JAK3 log2FoldChange: 3.281
JAKMIP1 log2FoldChange: 6.861
JPH3 log2FoldChange: 7.177
JPH4 log2FoldChange: 6.374
KCNH7 log2FoldChange: 3.228
KCNK3 log2FoldChange: 2.911
KCNN1 log2FoldChange: 6.119
KCNN3 log2FoldChange: 2.959
KCNQ2 log2FoldChange: 7.079
KCNQ3 log2FoldChange: 6.35
KCNU1 log2FoldChange: 3.505
KDR log2FoldChange: 2.185
KIAA1755 log2FoldChange: 3.46
KIF26A log2FoldChange: 3.322
KIRREL2 log2FoldChange: 3.351
KISS1R log2FoldChange: 5.189
KLRG1 log2FoldChange: 3.015
KNDC1 log2FoldChange: 5.452
KRT81 log2FoldChange: 2.561
LAMA1 log2FoldChange: 4.927
LANCL3 log2FoldChange: 2.567
LGI3 log2FoldChange: 4.02
LGI4 log2FoldChange: 3.612
LHX6 log2FoldChange: 2.492
LINGO1 log2FoldChange: 3.184
LMX1B log2FoldChange: 4.789
LRAT log2FoldChange: 2.695
LRRC4B log2FoldChange: 6.224
LRRC63 log2FoldChange: 3.034
LTK log2FoldChange: 2.536
LUM log2FoldChange: 2.768
MACC1 log2FoldChange: 2.159
MAGEC1 log2FoldChange: 3.487
MAK log2FoldChange: 2.409
MDFI log2FoldChange: 3.485
MEFV log2FoldChange: 4.614
MEGF11 log2FoldChange: 3.91
MGAT3 log2FoldChange: 4.144
MME log2FoldChange: 2.372
MORN3 log2FoldChange: 2.131
MPP7 log2FoldChange: 2.694
MRO log2FoldChange: 3.525
MT3 log2FoldChange: 2.775
MYEOV log2FoldChange: 3.238
MYO1D log2FoldChange: 2.853
MYOZ2 log2FoldChange: 6.009
NALF2 log2FoldChange: 4.418
NAT16 log2FoldChange: 3.0286
NCALD log2FoldChange: 2.788
NCAN log2FoldChange: 5.945
NCCRP1 log2FoldChange: 5.22
NECTIN4 log2FoldChange: 2.229
NFASC log2FoldChange: 2.355
NFATC4 log2FoldChange: 2.3144
NFIA log2FoldChange: 2.067
NKD1 log2FoldChange: 3.284
NKX1-2 log2FoldChange: 2.899
NLRP1 log2FoldChange: 3.5059
NME5 log2FoldChange: 2.6336
NPY2R log2FoldChange: 3.759
NSG1 log2FoldChange: 5.809
NTNG2 log2FoldChange: 2.905
NXPH3 log2FoldChange: 2.7857
OLFM2 log2FoldChange: 3.458
OLIG2 log2FoldChange: 6.361
OTOGL log2FoldChange: 4.502
PALM3 log2FoldChange: 2.0048
